Patent US4266077A, “Naphthalenetetrayltetrakis(sulfonylimino)-aryl multicarboxylic acids and salts thereof” (priority 1979, dated 1981)
Where two headings read alike, the source gives them in different places.

Experiments:
[1] = tested on: complement activity of sera; assay: Guinea Pig Intraperitoneal Test (GPIP); type: in vivo; conditions: Cavia porcellus, ip, 200 mg./kg. i.p.
Text: An active inhibitor protects C2 from C1 and C4; (ii) Test Code 035 (C3-C9 inhibitor): This test determines the ability of the late components of human complement (C3-C9) to lyse EAC 142 in the presence of appropriate dilutions of the test compound. An active inhibitor protects EAC 142 from lysis by human C3-C9; (iii) Test Code 036 (C-Shunt inhibitor): In this test human erythrocytes rendered fragile are lysed in autologous serum via the shunt pathway activated by cobra venom factor in the presence of appropriate dilutions of the test compound. Inhibition of the shunt pathway results in failure of lysis; (iv) Forssman Vasculitis Test: Here, the well known complement dependent lesion, Forssman vasculitis, is produced in guinea pigs by intradermal injection of rabbit anti-Forssman antiserum. The lesion is measured in terms of diameter, edema and hemorrhage and the extent to which a combined index of these is inhibited by prior intraperitoneal injection of the test compound at 200 mg./kg. is then reported, unless otherwise stated; (v) Forssman Shock Test: Lethal shock is produced in guinea pigs by an i.v. injection of anti-Forssman antiserum and the harmonic mean death time of treated guinea pigs is compared with that of simultaneous controls; (vi) Complement Level Reduction Test: In this test, the above dosed guinea pigs, or others, are bled for serum and the complement level is determined in undiluted serum by the capillary tube method of U.S. Pat. No. 3,876,376 and compared to undosed control guinea pigs; (vii) Cap 50 Test: Here, appropriate amounts of the test compound are added to a pool of guinea pig serum in vitro, after which the undiluted serum capillary tube assay referred to above is run. The concentration of compound inhibiting 50% is reported; (viii) Guinea Pig Intraperitoneal Test (GPIP): Guinea pigs weighing about 300 g. are dosed intraperitoneally (i.p.) with 200 mg./kg. of the test compound dissolved in saline and adjusted to pH 7-8. Approximately 0.4 ml. blood samples, taken by orbital sinus puncture 30 minutes and one hour after injections, are collected directly into centrifuge tubes; 5 ml. blood samples, taken by decapitation 2 hours after injection are collected directly into diSPo® beakers. The samples were allowed to clot, centrifuged, and the resultant sera are assayed for complement activity using the capillary complement assay. Percent inhibition is calculated by comparison with simultaneous controls. The results appear in Table I together with results of Test Code 026, 035, 036, Cap 50 and % Inhibition.

[2] = tested on: late components of human complement (C3-C9); assay: Test Code 035 (C3-C9 inhibitor), lysis of EAC 142; type: biochemical; conditions: serial dilution assay, twofold dilutions; higher well number indicates higher activity
Text: (§1) An active inhibitor protects C2 from C1 and C4; (ii) Test Code 035 (C3-C9 inhibitor): This test determines the ability of the late components of human complement (C3-C9) to lyse EAC 142 in the presence of appropriate dilutions of the test compound. An active inhibitor protects EAC 142 from lysis by human C3-C9; (iii) Test Code 036 (C-Shunt inhibitor): In this test human erythrocytes rendered fragile are lysed in autologous serum via the shunt pathway activated by cobra venom factor in the presence of appropriate dilutions of the test compound. Inhibition of the shunt pathway results in failure of lysis; (iv) Forssman Vasculitis Test: Here, the well known complement dependent lesion, Forssman vasculitis, is produced in guinea pigs by intradermal injection of rabbit anti-Forssman antiserum. […] Percent inhibition is calculated by comparison with simultaneous controls. […]

[3] = tested on: shunt pathway activated by cobra venom factor; assay: Test Code 036 (C-Shunt inhibitor), lysis of human erythrocytes in autologous serum; type: biochemical; conditions: serial dilution assay, twofold dilutions; higher well number indicates higher activity
Text: as §1

[4] = biological target: T1, activated human C1 (Homo sapiens, UniProt P09871); assay: Test Code 026 (C1 inhibitor); type: biochemical; conditions: serial dilution assay, twofold dilutions; higher well number indicates higher activity
T1 construct: C1r and C1s cleaved to two-chain proteases
Text: as §1

[5] = 0.5 h, serum 30 minutes after injection, read-out: In Vivo Activity (Guinea Pig) % Inhibition Intraperitoneal, 30 minutes
[6] = 1 h, serum 60 minutes after injection, read-out: In Vivo Activity (Guinea Pig) % Inhibition Intraperitoneal, 60 minutes
[7] = 2 h, serum 120 minutes after injection, read-out: In Vivo Activity (Guinea Pig) % Inhibition Intraperitoneal, 120 minutes

T1 sequence (P09871 16-688): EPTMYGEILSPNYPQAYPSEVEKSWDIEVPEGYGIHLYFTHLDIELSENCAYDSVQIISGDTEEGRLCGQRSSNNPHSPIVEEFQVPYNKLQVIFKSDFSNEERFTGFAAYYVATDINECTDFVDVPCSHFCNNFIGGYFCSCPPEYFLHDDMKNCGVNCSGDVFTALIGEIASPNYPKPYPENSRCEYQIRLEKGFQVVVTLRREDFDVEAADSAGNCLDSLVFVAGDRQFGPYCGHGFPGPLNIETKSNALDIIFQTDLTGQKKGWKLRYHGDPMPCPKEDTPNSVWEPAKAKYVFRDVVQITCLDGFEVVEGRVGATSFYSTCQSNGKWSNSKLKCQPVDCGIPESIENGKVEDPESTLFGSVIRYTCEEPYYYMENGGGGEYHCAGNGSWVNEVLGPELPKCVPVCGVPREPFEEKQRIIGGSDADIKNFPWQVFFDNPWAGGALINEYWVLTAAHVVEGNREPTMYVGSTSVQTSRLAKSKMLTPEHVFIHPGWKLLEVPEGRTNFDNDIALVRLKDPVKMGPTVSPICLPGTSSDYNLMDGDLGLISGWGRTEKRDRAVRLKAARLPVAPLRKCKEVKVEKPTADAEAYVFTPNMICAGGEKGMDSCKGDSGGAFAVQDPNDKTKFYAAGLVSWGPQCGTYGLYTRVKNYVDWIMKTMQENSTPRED
T1 sequence (P00736 18-705 partner): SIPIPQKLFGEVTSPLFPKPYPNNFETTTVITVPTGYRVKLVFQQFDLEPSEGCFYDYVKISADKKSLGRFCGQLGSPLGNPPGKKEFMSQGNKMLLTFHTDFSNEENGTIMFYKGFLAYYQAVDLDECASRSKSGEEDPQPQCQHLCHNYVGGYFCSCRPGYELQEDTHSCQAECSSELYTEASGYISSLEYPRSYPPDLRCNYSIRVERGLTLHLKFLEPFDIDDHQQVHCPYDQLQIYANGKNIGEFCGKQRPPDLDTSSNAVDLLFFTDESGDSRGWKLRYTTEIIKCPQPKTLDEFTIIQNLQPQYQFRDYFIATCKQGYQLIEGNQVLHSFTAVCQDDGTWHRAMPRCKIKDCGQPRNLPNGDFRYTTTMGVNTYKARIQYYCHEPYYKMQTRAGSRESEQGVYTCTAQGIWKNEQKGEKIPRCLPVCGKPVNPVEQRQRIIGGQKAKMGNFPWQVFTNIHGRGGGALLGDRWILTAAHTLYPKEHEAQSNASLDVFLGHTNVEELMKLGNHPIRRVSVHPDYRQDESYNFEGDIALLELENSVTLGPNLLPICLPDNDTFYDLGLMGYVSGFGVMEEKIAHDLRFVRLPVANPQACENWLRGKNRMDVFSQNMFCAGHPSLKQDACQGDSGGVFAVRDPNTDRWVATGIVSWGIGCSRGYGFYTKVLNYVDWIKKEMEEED
T1 sequence (P02745 23-245 partner): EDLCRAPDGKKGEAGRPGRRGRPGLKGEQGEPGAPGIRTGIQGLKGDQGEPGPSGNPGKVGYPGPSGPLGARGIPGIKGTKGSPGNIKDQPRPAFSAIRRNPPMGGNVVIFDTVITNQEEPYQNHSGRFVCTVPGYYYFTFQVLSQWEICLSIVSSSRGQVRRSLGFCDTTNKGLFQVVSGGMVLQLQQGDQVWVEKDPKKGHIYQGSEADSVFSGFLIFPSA
T1 sequence (P02746 28-253 partner): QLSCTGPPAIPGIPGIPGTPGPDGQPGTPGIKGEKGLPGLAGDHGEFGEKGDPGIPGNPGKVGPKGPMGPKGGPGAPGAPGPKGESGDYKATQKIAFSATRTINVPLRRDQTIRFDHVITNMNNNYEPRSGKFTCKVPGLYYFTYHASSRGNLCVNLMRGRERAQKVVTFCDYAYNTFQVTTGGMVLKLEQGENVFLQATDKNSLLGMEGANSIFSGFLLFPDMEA
T1 sequence (P02747 29-245 partner): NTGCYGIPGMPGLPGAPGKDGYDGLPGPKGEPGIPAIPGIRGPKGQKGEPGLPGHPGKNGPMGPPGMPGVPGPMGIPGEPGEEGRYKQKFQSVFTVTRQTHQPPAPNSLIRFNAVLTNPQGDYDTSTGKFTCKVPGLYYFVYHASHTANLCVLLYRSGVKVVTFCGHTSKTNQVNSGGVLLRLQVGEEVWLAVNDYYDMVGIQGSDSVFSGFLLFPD

SMILES | inhibition at 200 mg/kg [1, 5] [%] | inhibition at 200 mg/kg [1, 6] [%] | inhibition at 200 mg/kg [1, 7] [%] | C-Late 035 Wells [2] | Shunt Inhibition 036 Wells [3] | Cl 026 Wells [4]
O=C([O-])c1cc(NS(=O)(=O)c2cc(S(=O)(=O)Nc3cc(C(=O)[O-])cc(C(=O)[O-])c3)c3cc(S(=O)(=O)Nc4cc(C(=O)[O-])cc(C(=O)[O-])c4)cc(S(=O)(=O)Nc4cc(C(=O)[O-])cc(C(=O)[O-])c4)c3c2)cc(C(=O)[O-])c1.[Na+].[Na+].[Na+].[Na+].[Na+].[Na+].[Na+].[Na+] [5,5',5",5'"-[1,3,5,7-Naphthalenetetrayltetrakis(sulfonylimino)]-tetra-1,3-benzenedicarboxylic acid, octasodium salt] | -66 | -71 | -76 | +2 Wells | +6 Wells | +7 Wells
O=C([O-])c1cc(NS(=O)(=O)c2cc(S(=O)(=O)Nc3cc(C(=O)[O-])c(C(=O)[O-])c(C(=O)[O-])c3)c3cc(S(=O)(=O)Nc4cc(C(=O)[O-])c(C(=O)[O-])c(C(=O)[O-])c4)cc(S(=O)(=O)Nc4cc(C(=O)[O-])c(C(=O)[O-])c(C(=O)[O-])c4)c3c2)cc(C(=O)[O-])c1C(=O)[O-].[Na+].[Na+].[Na+].[Na+].[Na+].[Na+].[Na+].[Na+].[Na+].[Na+].[Na+].[Na+] [5,5',5",5'"-[1,3,5,7-Naphthalenetetrayltetrakis[sulfonylimino)]-tetra-1,2,3-benzenetricarboxylic acid, dodecasodium salt] | -80 | -77 | -85 | +4 Wells | +6 Wells | +2 Wells
